Data from patent US10174016B2 (BAYER AKTIENGESELLSCHAFT, priority 2014, dated 2019).

How the values were obtained:
human P2X3 receptor = human P2X3 receptor (Homo sapiens (Human), UniProt P56373); experiment: Intracellular calcium measurement (FLIPR, Fluo-4) of antagonist activity at human P2X3 receptors; type: cell-based; settings: human P2X3, FLIPR calcium assay, agonist α,β-Me-ATP; read-out: hP2X3 IC50
Procedure: (§1) Intracellular Calcium Measurement to Assess Antagonist Activity at Human P2X3 and Human P2X2/3 Receptors
(§2) A fluorescent imaging plate reader (FLEX/FLIPR station; Molecular Devices) was used to monitor intracellular calcium levels using the calcium-chelating dye Fluo-4 (Molecular Probes). […] Cells expressing purinergic receptors P2X3 (human) or P2X2/3 (human) were plated at a density of 15,000 cells/well in collagen-coated 384-well plates approximately 20 hours before beginning the assay. […] The test compound was added in a volume of 5 μl and allowed to incubate for 30 min at 37° C. The final assay DMSO concentration is 1%. The agonist, α,β-Me-ATP, was added in a volume of 20 μl at a concentration representing the EC80 value. The fluorescence was measured for an interval of 90 sec at 2 sec intervals and analyzed based on the increase in peak relative fluorescence units (RFU) compared to the basal fluorescence. Peak fluorescence was used to determine the response to agonist obtained at each concentration of test compound by the following equation: % Response=100*(RFU(test compound)−RFU(control)/RFU(DMSO)−RFU(control))
(§3) The Examples were tested in triplicates per plate and mean values were plotted in Excel XLFit to determine IC50 values at the human P2X3 and human P2X2/3 receptors, percentage of maximal inhibition and the Hill coefficients.

human P2X2/3 receptor = human P2X2/3 receptor (Homo sapiens (Human), UniProt P56373+Q9UBL9); experiment: Intracellular calcium measurement (FLIPR, Fluo-4) of antagonist activity at human P2X2/3 receptors; type: cell-based; settings: human P2X2/3, FLIPR calcium assay, agonist α,β-Me-ATP; read-out: hP2X2/3 IC50
Chain of human P2X2/3 receptor (P56373 whole entry): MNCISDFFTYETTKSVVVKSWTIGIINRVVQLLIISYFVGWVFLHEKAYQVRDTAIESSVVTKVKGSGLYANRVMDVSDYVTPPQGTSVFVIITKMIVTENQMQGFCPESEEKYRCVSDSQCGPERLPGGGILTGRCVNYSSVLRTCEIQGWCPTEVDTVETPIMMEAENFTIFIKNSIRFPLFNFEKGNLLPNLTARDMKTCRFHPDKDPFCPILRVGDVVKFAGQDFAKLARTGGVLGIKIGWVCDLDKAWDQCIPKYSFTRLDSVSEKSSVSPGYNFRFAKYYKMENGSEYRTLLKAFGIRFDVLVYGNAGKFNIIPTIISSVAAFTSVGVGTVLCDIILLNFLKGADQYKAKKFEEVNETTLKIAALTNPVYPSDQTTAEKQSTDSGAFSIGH
Chain of human P2X2/3 receptor (Q9UBL9 whole entry): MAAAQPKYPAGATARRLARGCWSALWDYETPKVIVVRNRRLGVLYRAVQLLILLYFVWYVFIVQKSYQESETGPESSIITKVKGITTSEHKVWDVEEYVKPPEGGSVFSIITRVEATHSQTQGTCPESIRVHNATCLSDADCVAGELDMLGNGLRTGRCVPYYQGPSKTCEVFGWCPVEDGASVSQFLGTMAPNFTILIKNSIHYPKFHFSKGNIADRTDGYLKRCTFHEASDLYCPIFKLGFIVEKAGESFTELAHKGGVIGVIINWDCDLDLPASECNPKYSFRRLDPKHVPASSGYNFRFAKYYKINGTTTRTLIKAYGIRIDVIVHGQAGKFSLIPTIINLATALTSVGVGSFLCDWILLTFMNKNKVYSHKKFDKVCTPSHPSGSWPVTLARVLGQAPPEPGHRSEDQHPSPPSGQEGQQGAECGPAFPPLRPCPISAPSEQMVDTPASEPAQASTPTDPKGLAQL
Procedure: as §1, §2, §3

Chain of human P2X3 receptor (P56373 whole entry): as the sequence (P56373 whole entry) above

Compound	IC50 (human P2X3 receptor)	IC50 (human P2X2/3 receptor)
CC#CCOc1cc(C(=O)N[C@H](C)c2cnc(C(F)(F)F)nc2)cc(-c2ncc(C)s2)c1 [Example 40, 3-(But-2-yn-1-yloxy)-5-(5-methyl-1,3-thiazol-2-yl)-N-[(1R)-1-[2-(trifluoromethyl)pyrimidin-5-yl]ethyl]benzamide]	16 nM	383 nM
CC#CCOc1cc(C(=O)N[C@H](C)c2nnc(C)s2)cc(-c2ncc(C)s2)c1 [Example 41, 3-(But-2-yn-1-yloxy)-N-[(1R)-1-(5-methyl-1,3,4-thiadiazol-2-yl)ethyl]-5-(5-methyl-1,3-thiazol-2-yl)benzamide]	130 nM	1590 nM
Cc1ncc([C@@H](C)NC(=O)c2cc(OC3COC3)cc(-c3ncc(C)s3)c2)cn1 [Example 43, N-[(1R)-1-(2-Methylpyrimidin-5-yl)ethyl]-3-(5-methyl-1,3-thiazol-2-yl)-5-(oxetan-3-yloxy)benzamide]	50 nM	2690 nM
Cc1cnc(-c2cc(OC3COC3)cc(C(=O)NC(C)c3ncc(Cl)cc3F)c2)s1 (centres unmarked) [Example 44, N-[1-(5-Chloro-3-fluoropyridin-2-yl)ethyl]-3-(5-methyl-1,3-thiazol-2-yl)-5-(oxetan-3-yloxy)benzamide]	11 nM	370 nM
Cc1ccc(CNC(=O)c2cc(OC3COC3)cc(-c3ncc(C)s3)c2)nn1 [Example 45, N-[(6-Methylpyridazin-3-yl)methyl]-3-(5-methyl-1,3-thiazol-2-yl)-5-(oxetan-3-yloxy)benzamide]	212 nM	1510 nM
Cc1cnc(-c2cc(OC3COC3)cc(C(=O)N[C@H](C)c3ccc(Cl)cn3)c2)s1 [Example 46, N-[(1R)-1-(5-Chloropyridin-2-yl)ethyl]-3-(5-methyl-1,3-thiazol-2-yl)-5-(oxetan-3-yloxy)benzamide]	10 nM	389 nM
Cc1ccc([C@@H](C)NC(=O)c2cc(OC3COC3)cc(-c3ncc(C)s3)c2)nn1 [Example 47, N-[(1R)-1-(6-Methylpyridazin-3-yl)ethyl]-3-(5-methyl-1,3-thiazol-2-yl)-5-(oxetan-3-yloxy)benzamide]	82 nM	621 nM
Cc1cnc(-c2cc(OC3COC3)cc(C(=O)NC(C)c3ncc(F)cc3Cl)c2)s1 (centres unmarked) [Example 49, N-[1-(3-Chloro-5-fluoropyridin-2-yl)ethyl]-3-(5-methyl-1,3-thiazol-2-yl)-5-(oxetan-3-yloxy)benzamide]	132 nM	1520 nM
Cc1cnc(-c2cc(OC3COC3)cc(C(=O)N[C@H](C)c3nnc(C)s3)c2)s1 [Example 50, N-[(1R)-1-(5-Methyl-1,3,4-thiadiazol-2-yl)ethyl]-3-(5-methyl-1,3-thiazol-2-yl)-5-(oxetan-3-yloxy)benzamide]	77 nM	982 nM
Cc1cnc(-c2cc(OC3COC3)cc(C(=O)NCc3ccc(C(F)(F)F)nn3)c2)s1 [Example 52, 3-(5-methyl-1,3-thiazol-2-yl)-5-(oxetan-3-yloxy)-N-{[6-(trifluoromethyl)pyridazin-3-yl]methyl}benzamide]	194 nM	564 nM
CC[C@@H](NC(=O)c1cc(OC2COC2)cc(-c2ncc(C)s2)c1)c1cnc(C(F)(F)F)nc1 [Example 53, 3-(5-methyl-1,3-thiazol-2-yl)-5-(oxetan-3-yloxy)-N-{(1R)-1-[2-(trifluoromethyl)pyrimidin-5-yl]propyl}benzamide]	318 nM	2740 nM
Cc1cnc(CNC(=O)c2cc(OC[C@@H]3CCCO3)cc(-c3ncc(C)s3)c2)cn1 [Example 56, N-[(5-Methylpyrazin-2-yl)methyl]-3-(5-methyl-1,3-thiazol-2-yl)-5-[(2S)-tetrahydrofuran-2-ylmethoxy]benzamide]	148 nM	≥ 10000 nM
Cc1cnc([C@@H](C)NC(=O)c2cc(OC[C@@H]3CCCO3)cc(-c3ncc(C)s3)c2)cn1 [Example 57, N-[(1R)-1-(5-Methylpyrazin-2-yl)ethyl]-3-(5-methyl-1,3-thiazol-2-yl)-5-[(2S)-tetrahydrofuran-2-ylmethoxy]benzamide]	25 nM	2840 nM
Cc1cnc(-c2cc(OC[C@@H]3CCCO3)cc(C(=O)N[C@H](C)c3cnc(C(F)(F)F)nc3)c2)s1 [Example 58, 3-(5-Methyl-1,3-thiazol-2-yl)-5-[(2S)-tetrahydrofuran-2-ylmethoxy]-N-{(1R)-1-[2-(trifluoromethyl)pyrimidin-5-yl]ethyl}benzamide]	4 nM	461 nM
Cc1ccc([C@@H](C)NC(=O)c2cc(OC[C@@H]3CCCO3)cc(-c3ncc(C)s3)c2)nn1 [Example 59, N-[(1R)-1-(6-Methylpyridazin-3-yl)ethyl]-3-(5-methyl-1,3-thiazol-2-yl)-5-[(2S)-tetrahydrofuran-2-ylmethoxy]benzamide]	13 nM	507 nM

Now from value to molecule:

IC50 (human P2X3 receptor)	IC50 (human P2X2/3 receptor)	Compound
11 nM	578 nM	Cc1cnc(-c2cc(OC[C@@H]3CCCO3)cc(C(=O)N[C@H](C)c3ccc(C(F)(F)F)nn3)c2)s1 [Example 60, 3-(5-Methyl-1,3-thiazol-2-yl)-5-[(2S)-tetrahydrofuran-2-ylmethoxy]-N-{(1R)-1-[6-(trifluoromethyl)pyridazin-3-yl]ethyl}benzamide]
14 nM	428 nM	Cc1ccc([C@@H](C)NC(=O)c2cc(OC[C@H]3CCCO3)cc(-c3ncc(C)s3)c2)nn1 [Example 61, N-[(1R)-1-(6-methylpyridazin-3-yl)ethyl]-3-(5-methyl-1,3-thiazol-2-yl)-5-[(2R)-tetrahydrofuran-2-ylmethoxy]benzamide]
85 nM	1440 nM	Cc1ccc(CNC(=O)c2cc(OC[C@H]3CCCO3)cc(-c3ncc(C)s3)c2)nn1 [Example 62, N-[(6-Methylpyridazin-3-yl)methyl]-3-(5-methyl-1,3-thiazol-2-yl)-5-[(2R)-tetrahydrofuran-2-ylmethoxy]benzamide]
4 nM	118 nM	Cc1cnc(-c2cc(OC[C@H]3CCCO3)cc(C(=O)N[C@H](C)c3cnc(C(F)(F)F)nc3)c2)s1 [Example 63, 3-(5-Methyl-1,3-thiazol-2-yl)-5-[(2R)-tetrahydrofuran-2-ylmethoxy]-N-{(1R)-1-[2-(trifluoromethyl)pyrimidin-5-yl]ethyl}benzamide]
53 nM	984 nM	Cc1cnc([C@@H](C)NC(=O)c2cc(OC[C@H]3CCCO3)cc(-c3ncc(C)s3)c2)cn1 [Example 64, N-[(1R)-1-(5-methylpyrazin-2-yl)ethyl]-3-(5-methyl-1,3-thiazol-2-yl)-5-[(2R)-tetrahydrofuran-2-ylmethoxy]benzamide]
3 nM	54 nM	Cc1cnc(-c2cc(OC[C@H]3CCOC3)cc(C(=O)NC(C)c3ncc(Cl)cc3F)c2)s1 (stereo partly drawn) [Example 65, N-[1-(5-Chloro-3-fluoropyridin-2-yl)ethyl]-3-(5-methyL-1,3-thiazol-2-yl)-5-[(3S)-tetrahydrofuran-3-ylmethoxy]benzamide]
35 nM	6300 nM	Cc1ccc(CNC(=O)c2cc(OC[C@H]3CCOC3)cc(-c3ncc(C)s3)c2)nn1 [Example 66, N-[(6-Methylpyridazin-3-yl)methyl]-3-(5-methyl-1,3-thiazol-2-yl)-5-[(3S)-tetrahydrofuran-3-ylmethoxy]benzamide]
